Data reported in patent US20230053688A1, “METHODS TO ALTER LATENCY IN EBV+ MALIGNANCIES” (Cornell University, priority 2020, published 2023).
Read-outs that look alike come from different tables or passages of the source.

Tested on: LMP1 expression in Kem I cells
Assay: microbe, parasite or virus in culture
Type: cell-based, EBV
Conditions: for Average LMP1 Fold Increase / Replicate 1-LMP1 Fold Increase / Replicate 2-LMP1 Fold Increase: Kem I cells, 48 hours; for fold induction at 2.5 µM / fold induction at 1 µM: human gammaherpesvirus 4, 48 h
[1] = 2.5 uM, average of replicates 1 and 2
[2] = 2.5 uM, fold change in LMP1 transcript vs vehicle
[3] = read-out: Average LMP1 Fold Increase, Kem I cells, 2.5 uM, 48 hours, average of replicates 1 and 2
[4] = read-out: Replicate 1-LMP1 Fold Increase, Kem I cells, 2.5 uM, 48 hours, fold change in LMP1 transcript vs vehicle
[5] = read-out: Replicate 2-LMP1 Fold Increase, Kem I cells, 2.5 uM, 48 hours, fold change in LMP1 transcript vs vehicle
[6] = dose 2.5 uM, LMP1 transcript by in-well qRT-PCR, average of the two replicates
[7] = dose 2.5 uM, LMP1 transcript by in-well qRT-PCR, screen replicate 1
[8] = dose 2.5 uM, LMP1 transcript by in-well qRT-PCR, screen replicate 2
[9] = 1 uM, fold change in LMP1 transcript vs vehicle

Row | Compound | Average LMP1 Fold Increase [1] | Replicate 1-LMP1 Fold Increase [2] | Replicate 2-LMP1 Fold Increase [2] | further results
1 | COc1ccccc1S(=O)(=O)Nc1ccc2c(c1)CN(C)C(=O)N2 [PFI-1 (PF-6405761)] | 0.78 | 0.42 | 1.15 | –
2 | c1cc(-c2cnn3cc(-c4ccc(N5CCNCC5)cc4)cnc23)c2cccnc2c1 [LDN-212854] | 0.62 | 0.96 | 0.27 | –
3 | CC[C@@H]1/C=C/C=C/C[C@H](C)[C@H](O)[C@](C)(O)C(=O)[C@H](C)[C@@H](O)[C@H](C)C(=O)[C@H](C)[C@@H](O)[C@H](C)/C=C/C(=O)O[C@H]2[C@@H](C)[C@@H](CC1)O[C@@]1(CC[C@@H](C)[C@@H](C[C@H](C)O)O1)[C@@H]2C [Oligomycin A] | 1.40 | 1.03 | 1.76 | –
4 | COc1ccc(C(=O)N2CCCC2=O)cc1 [Aniracetam] | – | – | – | fold induction at 2.5 µM [3]: 0.55; fold induction at 2.5 µM [4]: 0.72; fold induction at 2.5 µM [5]: 0.39
5 | C[C@@H](c1ncncc1F)[C@](O)(Cn1cncn1)c1ccc(F)cc1F [Voriconazole] | – | – | – | fold induction at 2.5 µM (read-out: Average LMP1 Fold Increase, Kem I cells, dose 2.5 uM, 48 hours, LMP1 transcript by in-well qRT-PCR, average of the two replicates): 1.48; fold induction at 2.5 µM (read-out: Replicate 1-LMP1 Fold Increase, Kem I cells, dose 2.5 uM, 48 hours, LMP1 transcript by in-well qRT-PCR, screen replicate 1): 1.02; fold induction at 2.5 µM (read-out: Replicate 2-LMP1 Fold Increase, Kem I cells, dose 2.5 uM, 48 hours, LMP1 transcript by in-well qRT-PCR, screen replicate 2): 1.94
6 | Cc1cc(-c2ccc(CC(=O)Nc3ccc(-c4cccnc4)cc3)cc2)ccn1 [Wnt-C59 (C59)] | – | – | – | Average LMP1 Fold Increase [6]: 0.98 fold; Replicate 1-LMP1 Fold Increase [7]: 0.60 fold; Replicate 2-LMP1 Fold Increase [8]: 1.35 fold
7 | Cc1ccc(NC(=O)C2(c3ccc4c(c3)OC(F)(F)O4)CC2)nc1-c1cccc(C(=O)O)c1 [VX-809 (Lumacaftor)] | – | – | – | Average LMP1 Fold Increase [6]: 0.87 fold; Replicate 1-LMP1 Fold Increase [7]: 0.55 fold; Replicate 2-LMP1 Fold Increase [8]: 1.18 fold
8 | Cc1nc(-c2cn3c(n2)-c2ccc(-c4cnn(C(C)(C)C(N)=O)c4)cc2OCC3)n(C(C)C)n1 [GDC-0032] | – | – | – | Average LMP1 Fold Increase (1 uM, average of replicates 1 and 2): 1.23; Replicate 1-LMP1 Fold Increase [9]: 1.86; Replicate 2-LMP1 Fold Increase [9]: 0.59
9 | C=C1C(=O)O[C@H]2[C@H]1CC/C(C)=C/CC[C@@]1(C)O[C@@H]21 [(−)-Parthenolide] | 0.57 | 0.26 | 0.87 | –
10 | CC1(COc2ccc3c(c2)ncn3-c2ccc3cccc(N4CCC(N)CC4)c3n2)COC1 [Crenolanib (CP-868596)] | 4.04 | 2.56 | 5.53 | –
11 | COc1ccc2cc([C@H](C)C(=O)O)ccc2c1 [Naproxen] | – | – | – | fold induction at 2.5 µM [3]: 0.62; fold induction at 2.5 µM [4]: 0.69; fold induction at 2.5 µM [5]: 0.56
12 | Oc1ccc(Nc2nc(-c3ccc(Cl)cc3)cs2)cc1 [SKI II] | 1.00 | 0.96 | 1.03 | –
13 | O=c1cc(-c2ccc(O)cc2)oc2cc(O)cc(O)c12 [Apigenin] | – | – | – | fold induction at 2.5 µM [3]: 0.58; fold induction at 2.5 µM [4]: 0.69; fold induction at 2.5 µM [5]: 0.47
14 | CN[C@@H](C)C(=O)N[C@H](C(=O)N1CCC[C@H]1C(=O)Nc1snnc1-c1ccccc1)C1CCCCC1 [GDC-0152] | 0.68 | 0.76 | 0.59 | –
15 | BAM7 | 0.93 | 0.51 | 1.35 | –
16 | O=C(Nc1cccc(C(F)(F)F)c1)Nc1cc(S(=O)(=O)NC2CC2)ccc1-c1ccsc1 [AGI-6780] | – | – | – | fold induction at 2.5 µM [3]: 1.51; fold induction at 2.5 µM [4]: 0.42; fold induction at 2.5 µM [5]: 2.6
17 | O=C(O)CCc1ccc(NCc2cccc(Oc3ccccc3)c2)cc1 [GW9508] | 0.48 | 0.52 | 0.45 | –
18 | COC1=CC(c2cc3ccccc3[nH]2)=N/C1=C\c1[nH]c(C)cc1C [Obatoclax] | – | – | – | fold induction at 1 µM (read-out: Average LMP1 Fold Increase, Kem I cells, 1 uM, 48 hours, average of replicates 1 and 2): 13.7; fold induction at 1 µM (read-out: Replicate 1-LMP1 Fold Increase, Kem I cells, 1 uM, 48 hours, fold change in LMP1 transcript vs vehicle): 24.3; fold induction at 1 µM (read-out: Replicate 2-LMP1 Fold Increase, Kem I cells, 1 uM, 48 hours, fold change in LMP1 transcript vs vehicle): 3.03
19 | CCCC(C)NC(=O)c1ccc(Cl)c(Cl)c1 (stereo not drawn) [NSC 405020] | 0.39 | 0.50 | 0.28 | –
